The test system of assay [1] is CFA-induced thermal heat hyperalgesia. The assay can be described thus: thermal heat sensitivity, Plantar test (Hargreaves), CFA model. Conditions: rat. The format is in vivo. As for the experimental part:
LIT-001 was prepared as described in Frantz et al.[20]. For in vivo biological assays, it was dissolved in carboxymethyl cellulose (CMC, 1%) - NaCl (0.9%) and administered at the dose of 10 mg/kg. LIT-001 or vehicle were injected intraperitoneally (i.p.), in a volume of 10 ml/kg[20], 24 h after the induction of the CFA-induced painful inflammatory sensitization. To confirm the implication of the OTR we injected (i.p.) also L-368,899 (Sigma, St. Louis, MO) (1 mg/kg), an OTR antagonist, in combination with LIT-001 in another group of rats[11].
Male Wistar rats (300 g; JANVIER LABS, Le Genest St. Isle, France) were used for this study. They were housed by groups of 3 or 4 under standard conditions (room temperature, 22 °C; 12/12 h light/dark cycle) with ad libitum access to food and water and behavioral enrichment. All animals were manipulated and habituated to the tests and to the room for at least 2 weeks. All behavioral tests were done during the light period (i.e., between 7:00 and 19:00). All the procedures were performed in accordance with European committee council Direction, authorization from French Department of Agriculture and from the regional ethic committee.
To test the animal heat sensitivity, we used the Plantar test with Hargreaves method (Ugo Basile, Comerio, Italy) to compare the response of each hindpaw[33] when we tested healthy animals (unilateral intraplantar NaCl injection) and animals having received unilateral intraplantar CFA (Freund’s Complete Adjuvant) injection. The habituated rat is placed in a small box and we wait until the animal is calmed then we exposed the hindpaw to a radiant heat, the latency time of paw withdrawal was measured.
In order to induce a peripheral inflammation, 100 μl of complete Freund adjuvant (CFA; Sigma, St. Louis, MO), was injected in the right hindpaw of the rat. All CFA injections were performed under light isoflurane anesthesia (3%).

Another assay concerns V1aR (hV1AR). On the set-up: method as in PMID 30199637. Particulars: cited from earlier work.
Where [2] appears, read: i.p., D1 after CFA, measured 1 hour after injection.

Take `Cc1cc(C(=O)N2Cc3cnn(C)c3Nc3ccccc32)ccc1CNC(=O)N1CCC[C@H]1C(=S)N(C)C` [LIT-001]: in assay [1] (10 mg/kg i.p.), the “thermal heat latency, NaCl-injected hindpaw (control animals)” value turned out to be 8.14 ± 0.48 s and the “thermal heat latency, hindpaw contralateral to CFA (cCFA)” value was found to be 11 ± 0.53 s. The “relative-to-baseline AUC, thermal heat latency, CFA-injected hindpaw” value in assay [1] (i.p. LIT-001 10 mg/kg at D1 after CFA) is 135 ± 9%. Further, the “thermal heat withdrawal latency, CFA-injected hindpaw” value in assay [1] (i.p. LIT-001 10 mg/kg at D1 after CFA, 3 h post i.p.) is reported as 5.83 ± 0.65 s. In addition, in assay [1] (setting [2]), the “dose at which analgesic effect reaches a plateau, thermal heat hypersensitivity” value stood at 10 mg/kg and the “dose of first analgesic action, thermal heat hypersensitivity” value is recorded as 5 mg/kg. Besides, the “EC50 (hV1AR)” value in the assay on V1aR (hV1AR) (agonist mode) is given as “non significant”. Also, the IC50 with V1aR (hV1AR) (antagonist mode, read-out: IC50, antagonism of vasopressin induced calcium release on V1aR) was 5.9 µM.

One may read the IC50 as the concentration needed to halve the response being measured.

The values are drawn from article PMC7033278, “A Nonpeptide Oxytocin Receptor Agonist for a Durable Relief of Inflammatory Pain” (Scientific Reports, 2020).
